How the values were obtained:
ERαY537S mutant protein = assay: ELISA of ERα protein in T47D-ERαY537S cells; type: cell-based, human; conditions: 24 hrs, FIG. 5
Method: T47D cells were treated with DMSO, Fulvestrant, Dip G and a Dip G derivative (Dip G-D1, compound 17) for 24 hrs. ERα protein amounts in cell lysate were quantified using ELISA kit (R&D systems) and normalized to standard curve using purified ERα protein. The experiments were performed in triplicate. Data are represented as mean±SD, n=3.
(T47D ERα WT is available from the American Type Culture Collection, Manassas, Va.; accession no. HTB-133. The T47D ERα Y537S cell line is described in Wardell et al 2015) “Efficacy of SERD/SERM Hybrid-CDK4/6 Inhibitor Combinations in Models of Endocrine Therapy-Resistant Breast Cancer,” Clin Cancer Res. 21(22):5121-5130. […] McCormack, P. and Sapunar, F. (2008) “Pharmacokinetic profile of the fulvestrant loading dose regimen in postmenopausal women with hormone receptor-positive advanced breast cancer,” Clinical breast cancer 8:347-351.

[1] = Toxicity observations in treated mice (AST ELISA, gross tissue, injection site); type: in vivo
Method: Dip G was synthesized as described and formulated for the in vivo treatment. Dip G was prepared by dissolving the stock powder in 100% DMSO to a final concentration of 50 mg/ml. This stock solution was then diluted 1:5 into a 40% polyethylene glycol (PEG300)/40% normal saline (0.9% NaCl) solution to a final concentration of 20% Dip G solution. […] To determine MTD, escalating doses of Dip G dissolved in the aforementioned formulation were injected retro-orbitally or by oral gavage daily, five days out of seven to determine the MTD. […] (Data not shown.) Dip G was intra-tumorally delivered to ERα-positive T47D xenografted mice three times a week and the tumors were monitored for three weeks. […] (AST ELISAs are available commercially from several suppliers, including Abcam, Cambridge, Mass.)
Mice were monitored twice weekly for weight changes and tumor growth (measured in diameter and volume) with calipers. Following tumors reaching an appropriate size (˜5 mm in diameter, taking approximately 3 months after grafting), intra-tumoral injections were begun with vehicle containing 20 mg/kg of Dip G or control vehicle in a total volume of 50 μL split between tumors on each mammary fat pad. Three mice (6 tumors) received control injections and eight (16 tumors) received Dip G. Injections were administered 3 times per week with at least one day of rest between injections, for a total of 10-12 injections. Cohorts were sacrificed by cage individually in numerical order, beginning with the 10th injection and sacrificing one cage per injection for pharmacokinetic time points from that injection onward. In mice with very small tumors, dosing was switched from intra-tumoral to subcutaneous at later time points.

O=C1c2c(O)cc(O)cc2-c2c(-c3ccc(O)cc3)oc3cc(O)cc1c23 [Dip G, diptoindonesin G]
degradation of ERαY537S mutant protein (ERαY537S mutant protein): more effective than 100 nM fulvestrant
liver toxicity ([1]; AST ELISA assay): undetectable
AST activity ([1]; aspartate aminotransferase ELISA, treated xenograft mice): around 70 milliunits/mL
toxicity in vivo ([1]; high concentrations): No obvious toxicity
signs around the tumor and the site of injection ([1]; intra-tumoral injection, not observed with vehicle only): subcutaneous bleeding, bruising, and discoloration
gross tissue damage ([1]; liver, lung, kidney, brain, and heart): no gross tissue damages were observed

Reference: patent US10508092B2, “Synthesis of novel analogs of diptoindonesin G, compounds formed thereby, and pharmaceutical compositions containing them” (Wisconsin Alumni Research Foundation, priority 2016, dated 2019)
